Broadly, the AUC(0-inf) is total exposure, with the tail of the curve extrapolated. A higher AUC(0-inf) goes with more exposure. One may read the Cmax as the maximum level reached in the sampled fluid or tissue. Usually half-life stands for the time in which the quantity being followed falls by half. Usually Tmax stands for the time at which the peak concentration occurs.

The nature of this series: Pharmacokinetics test in beagles after oral administration of Compound A (plasma, HPLC-FL method). Type of series: in vivo, beagle. The settings on record: for AUC(0-inf) / Cmax / half-life: plasma, po, 0.3 mg/kg. As for the experimental part: In this example, after oral administration of Compound A, a pharmacokinetics test was carried out, in accordance with the following procedure. In the test, a time course of changes in concentrations of the unreacted compound and metabolites was measured.
Compound A was suspended in 0.5% methyl cellulose solution, and the suspension was orally administered to 10 male beagles (0.3 mg/kg). Blood was collected from each subject after 0.25, 0.5, 1.0, 2.0, 4.0, and 8.0 hours from the administration. Plasma was extracted by liquid-liquid extraction, and then, a time course of changes in concentrations of the unreacted compound and metabolites in plasma was measured according to a simultaneous measurement method (hereinafter referred to as HPLC-FL method) using HPLC and a fluorescence detector.
Conditions in the HPLC-FL method measuring Compound A and metabolites simultaneously are shown in Table 9, and concentration gradients of mobile phases are shown in Table 10.
The beagles for the pharmacokinetics test used in this example were previously selected by carrying out a phenotype analysis. In the pharmacokinetics test, 5 dogs (type I) in which the major metabolite was MM-2, and 5 dogs (type II) in which the major metabolites were MM-1 and MM-5, were used. The time course of changes in concentrations of Compound A and metabolites thereof in plasma are shown in Table 1 (type I) and Table 2 (type II)
As pharmacokinetic parameters, time of maximum observed concentration (Tmax), concentration corresponding to Tmax (Cmax), area under the plasma concentration-time curve from the time of dosing extrapolated to infinity (AUCinf), and terminal half-life (T1/2) were calculated.

Setting [1] is: male, beagle, dog, type I (EM) beagles, n = 5, plasma after oral Compound A 0.3 mg/kg.
The mark [2] stands for this setting: male, beagle, dog, type II (PM) beagles, n = 5, plasma after oral Compound A 0.3 mg/kg.
Setting [3] is: unreacted compound in plasma, oral 0.3 mg/kg, type II (PM) vs type I (EM) beagles.

`CCn1c(=O)nc(C2CCCCC2)c2ccc(C)nc21` [Compound A, 4-cyclohexyl-1-ethyl-7-methylpyrido[2,3-d]pyrimidin-2(1H)-one]: under setting [1], the AUC(0-inf) was 2.8 ± 1.6 ng·h/mL, the Cmax was 3.2 ± 1.5 ng/mL, the half-life was 36 ± 12 min and the time to peak (Tmax) was found to be 18 min. Besides, under setting [2], the area under the curve AUC(0-inf) stood at 27.2 ± 20.2 ng·h/mL, the Cmax worked out at 24 ± 14.8 ng/mL and the half-life was 48 ± 24 min. Under setting [3], the “AUCinf of type II relative to type I” value amounted to 9.7 times and the “Cmax of type II relative to type I” value is listed as 7.5 times.
